From ChEMBL document CHEMBL5303573, “Mapping human microbiome drug metabolism by gut bacteria and their genes” (Nature, 2019)

What was measured:
[1] = bacteroides eggerthii, 12 h, 2 µM
Description: The drug is tested on Bacteroides eggerthii strain: DSM20697 for biotransformation. The drug concentrations were measured before and after a 12-h incubation by liquid-chromatography-coupled mass spectrometry (LC–MS)

[2] = The drug is tested on Bacteroides pectinophilus strain: ATCC43243 for biotransformation. The drug concentrations were measured before and after a 12-h incubation by liquid-chromatography-coupled mass spectrometry (LC–MS); conditions: 2 µM
[3] = The drug is tested on Bifidobacterium longum subsp. Infantis strain: CCUG52486 for biotransformation. The drug concentrations were measured before and after a 12-h incubation by liquid-chromatography-coupled mass spectrometry (LC–MS); conditions: 2 µM
[4] = The drug is tested on Bacteroides fragilis strain: HMW610 for biotransformation. The drug concentrations were measured before and after a 12-h incubation by liquid-chromatography-coupled mass spectrometry (LC–MS); conditions: 2 µM
[5] = The drug is tested on Bacteroides coprophilus strain: DSM18228 for biotransformation. The drug concentrations were measured before and after a 12-h incubation by liquid-chromatography-coupled mass spectrometry (LC–MS); conditions: 2 µM
[6] = The drug is tested on Ruminococcus lactaris strain: ATCC29176 for biotransformation. The drug concentrations were measured before and after a 12-h incubation by liquid-chromatography-coupled mass spectrometry (LC–MS); conditions: 2 µM
[7] = parabacteroides distasonis, 12 h, 2 µM
Description: The drug is tested on Parabacteroides distasonis strain: ATCC8503 for biotransformation. The drug concentrations were measured before and after a 12-h incubation by liquid-chromatography-coupled mass spectrometry (LC–MS)

[8] = The drug is tested on Providencia rettgeri strain: DSM1131 for biotransformation. The drug concentrations were measured before and after a 12-h incubation by liquid-chromatography-coupled mass spectrometry (LC–MS); type: ADME; set-up: dose 2 uM, timepoint 0 vs 12 hours; conditions: 2 µM
[9] = The drug is tested on Bacteroides caccae strain: ATCC43185 for biotransformation. The drug concentrations were measured before and after a 12-h incubation by liquid-chromatography-coupled mass spectrometry (LC–MS); conditions: 2 µM
[10] = The drug is tested on Anaerotruncus colihominis strain: DSM17241 for biotransformation. The drug concentrations were measured before and after a 12-h incubation by liquid-chromatography-coupled mass spectrometry (LC–MS); conditions: 2 µM
[11] = The drug is tested on Ruminococcus torques strain: ATCC27756 for biotransformation. The drug concentrations were measured before and after a 12-h incubation by liquid-chromatography-coupled mass spectrometry (LC–MS); type: ADME; set-up: dose 2 uM, timepoint 0 vs 12 hours; conditions: 2 µM
[12] = bacteroides fragilis, 12 h, 2 µM
Description: The drug is tested on Bacteroides fragilis strain: DS-208 for biotransformation. The drug concentrations were measured before and after a 12-h incubation by liquid-chromatography-coupled mass spectrometry (LC–MS)

[13] = The drug is tested on Bifidobacterium breve strain: DSM20213 for biotransformation. The drug concentrations were measured before and after a 12-h incubation by liquid-chromatography-coupled mass spectrometry (LC–MS); conditions: 2 µM
[14] = parabacteroides johnsonii, 12 h, 2 µM
Description: The drug is tested on Parabacteroides johnsonii strain: DSM18315 for biotransformation. The drug concentrations were measured before and after a 12-h incubation by liquid-chromatography-coupled mass spectrometry (LC–MS)

[15] = The drug is tested on Parabacteroides merdae strain: ATCC43184 for biotransformation. The drug concentrations were measured before and after a 12-h incubation by liquid-chromatography-coupled mass spectrometry (LC–MS); conditions: 2 µM
[16] = bacteroides fragilis, 12 h, 2 µM; remark: listed apart in the source
Description: The drug is tested on Bacteroides fragilis strain: 3397 (T10) for biotransformation. The drug concentrations were measured before and after a 12-h incubation by liquid-chromatography-coupled mass spectrometry (LC–MS)

[17] = bacteroides thetaiotaomicron, 12 h, 2 µM
Description: The drug is tested on Bacteroides thetaiotaomicron strain: 7330 for biotransformation. The drug concentrations were measured before and after a 12-h incubation by liquid-chromatography-coupled mass spectrometry (LC–MS)

[18] = The drug is tested on Clostridium sp. strain: fecal isolate for biotransformation. The drug concentrations were measured before and after a 12-h incubation by liquid-chromatography-coupled mass spectrometry (LC–MS); conditions: 2 µM

Measured: Bacterial Biotransformation

CCN(CC)CCNC(C(=O)OCCC(C)C)c1ccccc1.Cl.Cl (centres undefined)
not listed: [13] | [14] | [15] | [16] | [17] | [18]
Compound NOT metabolized: all other assays above

O=C1N=C([O-])NC1(c1ccccc1)c1ccccc1.[Na+] [PHENYTOIN SODIUM]
Compound NOT metabolized: [13] | [2] | [4] | [8] | [10] | [11] | [12]
Compound metabolized: [5] | [14] | [7] | [15]

CN(CCOc1ccc(CC2SC(=O)NC2=O)cc1)c1ccccn1.O=C(O)/C=C\C(=O)O (centres undefined) [ROSIGLITAZONE MALEATE]
not listed: [4]
Compound NOT metabolized: all other assays above

CCN1CCCC1CNC(=O)c1cc(S(N)(=O)=O)ccc1OC (centres undefined) [SULPIRIDE]
Compound metabolized: [4]
not listed: [5] | [7] | [12] | [16] | [17]
Compound NOT metabolized: all other assays above

CC(C)(C)NC[C@H](O)COc1nsnc1N1CCOCC1.O=C(O)/C=C\C(=O)O [TIMOLOL MALEATE]
not listed: [4] | [17]
Compound NOT metabolized: all other assays above
